Results on 33 molecules are retold here after ChEMBL document CHEMBL4706616, “Design, synthesis, and evaluation of substituted 2-acylamide-1,3-benzo[d]zole analogues as agents against MDR- and XDR-MTB” (Eur J Med Chem, 2021).

The subject of experiment [1] is Mycobacterium tuberculosis. The experiment is described as follows: Antitubercular activity against isoniazid/rifampicin multidrug-resistant Mycobacterium tuberculosis FJ05120 clinical isolates assessed as bacterial growth inhibition by MABA. The class given is functional. A general note: Alamar Blue is a resazurin reagent that responds to reducing activity.
Experiment [2] has as its system Mycobacterium tuberculosis. Briefly: Antitubercular activity against isoniazid/rifampicin/streptomycin/capreomycin/ofloxacin extensively drug-resistant Mycobacterium tuberculosis FJ05195 clinical isolates assessed as bacterial growth inhibition by MABA. The class given is functional.

Each structure is given as a SMILES string. In brackets after ≈: the same amount, converted by molar mass. Some results are limits rather than exact numbers.

One may read the MIC as the lowest concentration that inhibits growth of the organism. As for `Cc1nnsc1C(=O)Nc1nc2c(OCc3ccccn3)cccc2o1`, the MIC in experiment [1] came to 2.72 µM (≈ 0.999 µg/mL); in experiment [2] it was 5.44 µM (≈ 2 µg/mL).
With `NNC(=O)c1ccncc1` [ISONIAZID], the figures for the MIC in experiment [1] and in experiment [2] were 7.29 µM (≈ 1 µg/mL) and 29.2 µM (≈ 4 µg/mL), respectively.
As to `O=C(Nc1nc2ccccc2o1)c1cccs1`, the MIC in experiment [1] and in experiment [2] was 32.8 µM (≈ 8 µg/mL) each time.
In the case of `Cc1nnsc1C(=O)Nc1nc2ncccc2o1`, the MIC stood at 3.83 µM (≈ 1 µg/mL) in experiment [1] and 7.66 µM (≈ 2 µg/mL) in experiment [2].
With `O=C(Nc1nc2ccccc2o1)c1ccco1`, the MIC is 70.1 µM (≈ 16 µg/mL) in experiment [1] and 35.1 µM (≈ 8 µg/mL) in experiment [2].
As for `Cc1nnsc1C(=O)Nc1nc2c(ccc3ncccc32)o1`, the MIC in experiment [1] and in experiment [2] was 25.7 µM (≈ 8 µg/mL) each time.
As to `CO[C@H]1/C=C/O[C@@]2(C)Oc3c(C)c(O)c4c(O)c(c(/C=N/N5CCN(C)CC5)c(O)c4c3C2=O)NC(=O)/C(C)=C\C=C\[C@H](C)[C@H](O)[C@@H](C)[C@@H](O)[C@@H](C)[C@H](OC(C)=O)[C@@H]1C` [RIFAMPIN], the MIC in experiment [1] and in experiment [2] was more than 311 µM in each case.
Regarding `Cc1nnsc1C(=O)Nc1nc2c(ccc3ccccc32)o1`, the minimum inhibitory concentration (MIC) in experiment [1] and in experiment [2] was 103 µM (≈ 32 µg/mL) each time.
In the case of `O=C(Nc1nc2ccccc2o1)c1ccc(Cl)s1`, the MIC in experiment [1] and in experiment [2] was 14.3 µM (≈ 4 µg/mL) each time.
Regarding `Cc1nnsc1C(=O)Nc1nc2cc(C(C)(C)C)ccc2o1`, the MIC in experiment [1] and in experiment [2] was 0.4 µM (≈ 0.127 µg/mL) each time.
Take `Cc1nnsc1C(=O)Nc1nc2cc(-c3cnn(C)c3)ccc2o1`: the figures for the MIC in experiment [1] and in experiment [2] were 0.73 µM (≈ 0.248 µg/mL) and 1.47 µM (≈ 0.5 µg/mL), respectively.
Turning to `Cc1nnsc1C(=O)Nc1nc2ccccc2s1`, the MIC in experiment [1] and in experiment [2] was 57.9 µM (≈ 16 µg/mL) in each case.
In the case of `Cc1ccc2oc(NC(=O)c3snnc3C)nc2c1`, the MIC in experiment [1] and in experiment [2] was 7.29 µM (≈ 2 µg/mL) throughout.
As for `Cc1nnsc1C(=O)Nc1nc2c(Oc3ncccn3)cccc2o1`, the minimal inhibitory concentration (MIC) in experiment [1] was found to be 5.64 µM (≈ 2 µg/mL); in experiment [2] it was 2.82 µM (≈ 0.999 µg/mL).
Regarding `Cc1nnsc1C(=O)Nc1nc2cc(Cl)ccc2o1`, the MIC in experiment [1] and in experiment [2] was 1.7 µM (≈ 0.501 µg/mL) throughout.
Take `COC(=O)c1ccc2oc(NC(=O)c3snnc3C)nc2c1`: the MIC in experiment [1] came to 1.57 µM (≈ 0.5 µg/mL); in experiment [2] it was 3.14 µM (≈ 1 µg/mL).
On the same counts, the results for `CC[C@@H](CO)NCCN[C@@H](CC)CO` [ETHAMBUTOL] are 4.89 µM (≈ 0.999 µg/mL) and 39.2 µM (≈ 8 µg/mL).
In the case of `Cc1nnsc1C(=O)Nc1nc2cc(-c3cccnc3)ccc2o1`, the MIC in experiment [1] is 1.48 µM (≈ 0.499 µg/mL); in experiment [2], 2.96 µM (≈ 0.999 µg/mL).
Consider `Cc1nnsc1C(=O)Nc1nc2ccccc2o1`, for which the MIC in experiment [1] and in experiment [2] was 0.48 µM (≈ 0.125 µg/mL) in each case.
Turning to `O=C(Nc1nc2ccccc2o1)c1ccccc1`, the MIC in experiment [1] and in experiment [2] was 537 µM (≈ 128 µg/mL) each time.
Turning to `Cc1nnsc1C(=O)Nc1nc2cc(N3CCOCC3)ccc2o1`, the MIC in experiment [1] and in experiment [2] was 23.2 µM (≈ 8 µg/mL) in each case.
Regarding `Cc1nnsc1C(=O)Nc1nc2cc(Br)ccc2o1`, the MIC in experiment [1] and in experiment [2] was 1.47 µM (≈ 0.499 µg/mL) throughout.
Regarding `Cc1nnsc1C(=O)Nc1nc2c(-c3ccccn3)cccc2o1`, the MIC in experiment [1] came to 23.7 µM (≈ 8 µg/mL); in experiment [2] it was 47.4 µM (≈ 16 µg/mL).
On the same counts, the results for `Cc1nnsc1C(=O)Nc1nc2cc(-c3ccncc3)ccc2o1` are 0.74 µM (≈ 0.25 µg/mL) and 1.48 µM (≈ 0.499 µg/mL).
For `Cc1nnsc1C(=O)Nc1nc2cc(F)ccc2o1`, in that order: 0.45 µM (≈ 0.125 µg/mL) and 1.8 µM (≈ 0.501 µg/mL).
On to `Cc1nnsc1C(=O)Nc1nc2ccc(C(C)(C)C)cc2o1`, for which the MIC in experiment [1] and in experiment [2] was 6.32 µM (≈ 2 µg/mL) throughout.
With `Cc1nnsc1C(=O)Nc1nc2ccccc2[nH]1`, the MIC in experiment [1] and in experiment [2] was 30.9 µM (≈ 8 µg/mL) in each case.
For `Cc1nnsc1C(=O)Nc1nc2c(Br)cccc2o1`, the MIC in experiment [1] and in experiment [2] was 0.74 µM (≈ 0.251 µg/mL) throughout.
On to `Cc1nnsc1C(=O)Nc1nc2cc(-c3ccccn3)ccc2o1`, for which the MIC in experiment [1] and in experiment [2] was 0.37 µM (≈ 0.125 µg/mL) throughout.
Regarding `COC(=O)c1ccc(-c2ccc3oc(NC(=O)c4snnc4C)nc3c2)cc1`, the minimal inhibitory concentration (MIC) in experiment [1] and in experiment [2] was 0.63 µM (≈ 0.248 µg/mL) in each case.
As to `Cc1nnsc1C(=O)Nc1nc2ccc(Cl)cc2o1`, the MIC in experiment [1] stood at 0.42 µM (≈ 0.124 µg/mL); in experiment [2], 0.85 µM (≈ 0.251 µg/mL).
For the molecule `Cc1nnsc1C(=O)Nc1nc2c(ccc3cccnc32)o1`, the MIC in experiment [1] turned out to be 6.42 µM (≈ 2 µg/mL); in experiment [2], 25.7 µM (≈ 8 µg/mL).
For `CN[C@@H]1[C@H](O[C@H]2[C@H](O[C@H]3[C@H](O)[C@@H](O)[C@H](N=C(N)N)[C@@H](O)[C@@H]3N=C(N)N)O[C@@H](C)[C@]2(O)C=O)O[C@@H](CO)[C@H](O)[C@H]1O` [STREPTOMYCIN], in that order: less than 0.69 µM and 87.8 µM (≈ 51.1 µg/mL).
